In patent US20240300932A1, “N-PHENYLIMINE DERIVATIVE AND PREPARATION METHOD AND USE THEREOF” (Guizhou University, priority 2023, published 2024):

Legend:
Assay in all cases: Post-emergence herbicidal activity test (stem and leaf spray, pot culture)
Type in all cases: in vivo
Conditions in all cases: 3 weeks after spraying
Trifoliumre pensL. = test system: Trifoliumre pensL.
Method: (1) Post-Emergence Stem and Leaf Spray Treatment: The weeds were cultivated in a 180 mm×140 mm plastic nutrient pot by a pot-culture method, placed in an enamel tray, and the plastic nutrient pots were filled with surface soil (⅘ of a depth) collected from a farmland and air-dried and sieved, and a soil humidity was controlled at 20% in the initial stage. Weed seeds with plump and uniform grains were selected, soaked in warm water at 25° C. for 6 h, and germinated in a biochemical incubator (dark) at 28° C. The freshly exposed weed seeds were evenly placed on the soil surface, and then covered with 0.5 cm to 1 cm of soil according to the size of the seeds. The weeds are cultivated in a controlled sunlight greenhouse at 20° C. to 30° C., under natural light, and a relative humidity of 57% to 72%. The soil was loam, including 1.63% of organic matters, with a pH value of 7, 84.3 mg/kg of alkaline nitrogen, 38.5 mg/kg of available phosphorus, and 82.1 mg/kg of available potassium. Each treatment was repeated 2 times, each treatment included 12 pots, and 20 weed seeds were sown in each pot. Pesticide was applied in the test for 1 time in total. When the weeds grew to 1.5- to 2-leaf stage, thinning was conducted, with 10 weeds in each pot, and 30 weeds were kept in each treatment. The cultivated weeds were placed on trays with an area of 0.1 m^2, and stems and leaves were sprayed with a sprayer. After applying a pesticide, the pesticide applied weeds were moved into a greenhouse for routine cultivation. 2 weeks after sowing, the test plants were treated at the 2- to 3-leaf stage: the compounds of the present disclosure for testing were dissolved in acetone separately, and added with Tween 80, an emulsifiable oil of 1.5 liters/ha methyl oleate was added as a synergist, and an obtained mixture was diluted with certain water to a certain concentration solution. The solution was sprayed onto the plants using a spray tower. After spraying, the weeds were cultivated in the greenhouse for 3 weeks, and the experimental effects on the weeds were counted. The effective concentrations of the compounds were 10 g/mu, 5 g/mu, and 2.5 g/mu, the experiment was repeated three times, and an average result was taken.

Abutilon theophrasti = test system: Abutilon theophrasti
Method: (§1) The weeds were cultivated in a 180 mm×140 mm plastic nutrient pot by a pot-culture method, placed in an enamel tray, and the plastic nutrient pots were filled with surface soil (⅘ of a depth) collected from a farmland and air-dried and sieved, and a soil humidity was controlled at 20% in the initial stage. Weed seeds with plump and uniform grains were selected, soaked in warm water at 25° C. for 6 h, and germinated in a biochemical incubator (dark) at 28° C. The freshly exposed weed seeds were evenly placed on the soil surface, and then covered with 0.5 cm to 1 cm of soil according to the size of the seeds. The weeds are cultivated in a controlled sunlight greenhouse at 20° C. to 30° C., under natural light, and a relative humidity of 57% to 72%. The soil was loam, including 1.63% of organic matters, with a pH value of 7, 84.3 mg/kg of alkaline nitrogen, 38.5 mg/kg of available phosphorus, and 82.1 mg/kg of available potassium.
(§2) Each treatment was repeated 2 times, each treatment included 12 pots, and 20 weed seeds were sown in each pot. Pesticide was applied in the test for 1 time in total. When the weeds grew to 1.5- to 2-leaf stage, thinning was conducted, with 10 weeds in each pot, and 30 weeds were kept in each treatment.
(§3) The cultivated weeds were placed on trays with an area of 0.1 m^2, and stems and leaves were sprayed with a sprayer. After applying a pesticide, the pesticide applied weeds were moved into a greenhouse for routine cultivation.
(§4) 2 weeks after sowing, the test plants were treated at the 2- to 3-leaf stage: the compounds of the present disclosure for testing were dissolved in acetone separately, and added with Tween 80, an emulsifiable oil of 1.5 liters/ha methyl oleate was added as a synergist, and an obtained mixture was diluted with certain water to a certain concentration solution. The solution was sprayed onto the plants using a spray tower. After spraying, the weeds were cultivated in the greenhouse for 3 weeks, and the experimental effects on the weeds were counted. The effective concentrations of the compounds were 10 g/mu, 5 g/mu, and 2.5 g/mu, the experiment was repeated three times, and an average result was taken.
(§5) The activity level criteria for plant destruction (i.e. growth control rate) are as follows: • Grade 5: the growth control rate is greater than or equal to 85%; • Grade 4: the growth control rate is greater than or equal to 60% and less than 85%; • Grade 3: the growth control rate is greater than or equal to 40% and less than 60%; • Grade 2: the growth control rate is greater than or equal to 20% and less than 40%; • Grade 1: the growth control rate is greater than or equal to 5% and less than 20%; and • Grade 0: the growth control rate is less than 5%.
(§6) The growth control rate is a fresh weight control rate.

Amaranthus retroflexus = test system: Amaranthus retroflexus
Method: as §1, §2, §3, §4, §5, §6

Setaria viridis = test system: Setaria viridis
Method: as §1, §2, §3, §4, §5, §6

Portulaca oleracea = test system: Portulaca oleracea
Method: as §1, §2, §3, §4, §5, §6

Echinochloa crusgalli = test system: Echinochloa crusgalli
Method: as §1, §2, §3, §4, §5, §6

Compound | Post-emergence herbicidal activity, Trifoliumre pensL. (grade) (Trifoliumre pensL.; dosage 2.5 g/mu) | Post-emergence herbicidal activity, Trifoliumre pensL. (grade) (Trifoliumre pensL.; dosage 5 g/mu) | Post-emergence herbicidal activity, Trifoliumre pensL. (grade) (Trifoliumre pensL.; dosage 10 g/mu) | Post-emergence herbicidal activity, A. theophrasti (grade) (Abutilon theophrasti; dosage 2.5 g/mu) | Post-emergence herbicidal activity, A. theophrasti (grade) (Abutilon theophrasti; dosage 5 g/mu) | Post-emergence herbicidal activity, A. theophrasti (grade) (Abutilon theophrasti; dosage 10 g/mu) | Post-emergence herbicidal activity, A. retroflexus (grade) (Amaranthus retroflexus; dosage 2.5 g/mu) | Post-emergence herbicidal activity, A. retroflexus (grade) (Amaranthus retroflexus; dosage 5 g/mu) | Post-emergence herbicidal activity, A. retroflexus (grade) (Amaranthus retroflexus; dosage 10 g/mu) | Post-emergence herbicidal activity, S. viridis (grade) (Setaria viridis; dosage 2.5 g/mu) | Post-emergence herbicidal activity, S. viridis (grade) (Setaria viridis; dosage 5 g/mu) | Post-emergence herbicidal activity, S. viridis (grade) (Setaria viridis; dosage 10 g/mu) | Post-emergence herbicidal activity, P. oleracea (grade) (Portulaca oleracea; dosage 2.5 g/mu) | Post-emergence herbicidal activity, P. oleracea (grade) (Portulaca oleracea; dosage 5 g/mu) | Post-emergence herbicidal activity, P. oleracea (grade) (Portulaca oleracea; dosage 10 g/mu) | Post-emergence herbicidal activity, E. crusgalli (grade) (Echinochloa crusgalli; dosage 2.5 g/mu) | Post-emergence herbicidal activity, E. crusgalli (grade) (Echinochloa crusgalli; dosage 5 g/mu) | Post-emergence herbicidal activity, E. crusgalli (grade) (Echinochloa crusgalli; dosage 10 g/mu)
Cc1ccc(-c2noc(COc3cc(N4C(=O)C5=C(CCCC5)C4=O)c(F)cc3Cl)n2)c(Cl)c1 [Compound A15] | 5 (Grade 5: the growth control rate is greater than or equal to 85%) | 5 (Grade 5: the growth control rate is greater than or equal to 85%) | 5 (Grade 5: the growth control rate is greater than or equal to 85%) | 5 (Grade 5: the growth control rate is greater than or equal to 85%) | 5 (Grade 5: the growth control rate is greater than or equal to 85%) | 5 (Grade 5: the growth control rate is greater than or equal to 85%) | 5 (Grade 5: the growth control rate is greater than or equal to 85%) | 5 (Grade 5: the growth control rate is greater than or equal to 85%) | 5 (Grade 5: the growth control rate is greater than or equal to 85%) | 2 (Grade 2: the growth control rate is greater than or equal to 20% and less than 40%) | 3 (Grade 3: the growth control rate is greater than or equal to 40% and less than 60%) | 4 (Grade 4: the growth control rate is greater than or equal to 60% and less than 85%) | 5 (Grade 5: the growth control rate is greater than or equal to 85%) | 5 (Grade 5: the growth control rate is greater than or equal to 85%) | 5 (Grade 5: the growth control rate is greater than or equal to 85%) | 1 (Grade 1: the growth control rate is greater than or equal to 5% and less than 20%) | 2 (Grade 2: the growth control rate is greater than or equal to 20% and less than 40%) | 3 (Grade 3: the growth control rate is greater than or equal to 40% and less than 60%)
O=C1C2=C(CCCC2)C(=O)N1c1cc(OCc2nnc(-c3cccc([N+](=O)[O-])c3)o2)c(Cl)cc1F [Compound B12] | 5 (Grade 5: the growth control rate is greater than or equal to 85%) | 5 (Grade 5: the growth control rate is greater than or equal to 85%) | 5 (Grade 5: the growth control rate is greater than or equal to 85%) | 5 (Grade 5: the growth control rate is greater than or equal to 85%) | 5 (Grade 5: the growth control rate is greater than or equal to 85%) | 5 (Grade 5: the growth control rate is greater than or equal to 85%) | 5 (Grade 5: the growth control rate is greater than or equal to 85%) | 5 (Grade 5: the growth control rate is greater than or equal to 85%) | 5 (Grade 5: the growth control rate is greater than or equal to 85%) | 2 (Grade 2: the growth control rate is greater than or equal to 20% and less than 40%) | 3 (Grade 3: the growth control rate is greater than or equal to 40% and less than 60%) | 4 (Grade 4: the growth control rate is greater than or equal to 60% and less than 85%) | 5 (Grade 5: the growth control rate is greater than or equal to 85%) | 5 (Grade 5: the growth control rate is greater than or equal to 85%) | 5 (Grade 5: the growth control rate is greater than or equal to 85%) | 1 (Grade 1: the growth control rate is greater than or equal to 5% and less than 20%) | 2 (Grade 2: the growth control rate is greater than or equal to 20% and less than 40%) | 3 (Grade 3: the growth control rate is greater than or equal to 40% and less than 60%)
O=C1C2=C(CCCC2)C(=O)N1c1cc(OCc2nnc(-c3ccc(Br)cc3)o2)c(Cl)cc1F [Compound B16] | 5 (Grade 5: the growth control rate is greater than or equal to 85%) | 5 (Grade 5: the growth control rate is greater than or equal to 85%) | 5 (Grade 5: the growth control rate is greater than or equal to 85%) | 5 (Grade 5: the growth control rate is greater than or equal to 85%) | 5 (Grade 5: the growth control rate is greater than or equal to 85%) | 5 (Grade 5: the growth control rate is greater than or equal to 85%) | 5 (Grade 5: the growth control rate is greater than or equal to 85%) | 5 (Grade 5: the growth control rate is greater than or equal to 85%) | 5 (Grade 5: the growth control rate is greater than or equal to 85%) | 2 (Grade 2: the growth control rate is greater than or equal to 20% and less than 40%) | 3 (Grade 3: the growth control rate is greater than or equal to 40% and less than 60%) | 4 (Grade 4: the growth control rate is greater than or equal to 60% and less than 85%) | 5 (Grade 5: the growth control rate is greater than or equal to 85%) | 5 (Grade 5: the growth control rate is greater than or equal to 85%) | 5 (Grade 5: the growth control rate is greater than or equal to 85%) | 1 (Grade 1: the growth control rate is greater than or equal to 5% and less than 20%) | 2 (Grade 2: the growth control rate is greater than or equal to 20% and less than 40%) | 3 (Grade 3: the growth control rate is greater than or equal to 40% and less than 60%)
